Starred links: 1 amine or outer side, 2 acyl side, 3 side chain; linkers in the order of their positions; H or OH if unused. Non-standard residues stand in square brackets, D forms with d. No end group written: not given here. *: point of attachment. Pyrrolidine(2S-CN) = N#C[C@@H]1CCCN1*; εLys = N[C@@H](CCCCN[*:1])C(=O)[*:2]; pGlu = O=C1CC[C@@H](C(=O)O)N1; AEEA = NCCOCCOCC(=O)O; βAla = NCCC(=O)O
What was measured:
[1] = molecular target: T1, human GIP receptor (HEK-GIPR membranes) (Homo sapiens, UniProt P48546); test: GIP receptor binding displacement assay (RBA); conditions: 10 nM conjugate, 30 pM 125I-GIP; for inhibition at 0.01 µM: read-out: GIP RBA % inhibition at 10 nM
T1 construct: expressed in transfected cells
T1 sequence (P48546 22-466): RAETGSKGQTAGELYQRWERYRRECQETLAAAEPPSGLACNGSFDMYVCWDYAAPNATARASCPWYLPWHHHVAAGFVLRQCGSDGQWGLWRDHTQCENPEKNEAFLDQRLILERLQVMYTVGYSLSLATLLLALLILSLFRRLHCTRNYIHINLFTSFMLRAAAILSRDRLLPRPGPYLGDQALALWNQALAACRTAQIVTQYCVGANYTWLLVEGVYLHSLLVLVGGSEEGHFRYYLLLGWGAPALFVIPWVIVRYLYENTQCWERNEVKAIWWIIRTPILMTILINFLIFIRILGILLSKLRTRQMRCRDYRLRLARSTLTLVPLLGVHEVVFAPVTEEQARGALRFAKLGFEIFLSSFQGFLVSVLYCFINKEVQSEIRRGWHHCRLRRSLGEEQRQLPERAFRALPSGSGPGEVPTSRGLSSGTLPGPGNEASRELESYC
Experimental: Membrane fractions were prepared from confluent cell cultures of HEK-GIPR, snap frozen, and stored at −80° C. until use. […] Reactions were allowed to proceed to equilibrium for 90 minutes at room temperature with constant shaking. The reaction mixtures were then filtered through 96-well glass fiber filter plates separating bound and unbound fractions of radioligand.

NIH/Swiss mice = test: Oral glucose tolerance test (OGTT), glucose lowering; conditions: 30 nM/kg
Recombinant DPP-IV = Recombinant DPP-IV (Homo sapiens, UniProt P27487); test: DPP-IV inhibition assay with chromogenic substrate; assay type: biochemical; set-up: purchased Chemicon International, Inc., Temecula, Calif; conditions: mean SEM of at least three determinations
Experimental: The reactions were initiated by adding 1 μl DPP-IV enzyme (0.05 mU) into each well and the absorbance at 410 nm was measured with 20-sec intervals over a 30-min period using a SpectraMax plate reader (Molecular Devices, Corp., Sunnyvale, Calif.). The velocities of each reaction at different inhibitor concentrations were calculated and the reciprocal velocities were plotted against inhibitor concentrations in Dixon graphs. The IC50 values of reaction velocities were calculated through fitting the plots with linear equation.
The IC50 (nM) values in Table 5 are expressed as the mean SEM of at least three independent determinations.

Recombinant DPP-IV, sequence (P27487 whole entry, species assumed): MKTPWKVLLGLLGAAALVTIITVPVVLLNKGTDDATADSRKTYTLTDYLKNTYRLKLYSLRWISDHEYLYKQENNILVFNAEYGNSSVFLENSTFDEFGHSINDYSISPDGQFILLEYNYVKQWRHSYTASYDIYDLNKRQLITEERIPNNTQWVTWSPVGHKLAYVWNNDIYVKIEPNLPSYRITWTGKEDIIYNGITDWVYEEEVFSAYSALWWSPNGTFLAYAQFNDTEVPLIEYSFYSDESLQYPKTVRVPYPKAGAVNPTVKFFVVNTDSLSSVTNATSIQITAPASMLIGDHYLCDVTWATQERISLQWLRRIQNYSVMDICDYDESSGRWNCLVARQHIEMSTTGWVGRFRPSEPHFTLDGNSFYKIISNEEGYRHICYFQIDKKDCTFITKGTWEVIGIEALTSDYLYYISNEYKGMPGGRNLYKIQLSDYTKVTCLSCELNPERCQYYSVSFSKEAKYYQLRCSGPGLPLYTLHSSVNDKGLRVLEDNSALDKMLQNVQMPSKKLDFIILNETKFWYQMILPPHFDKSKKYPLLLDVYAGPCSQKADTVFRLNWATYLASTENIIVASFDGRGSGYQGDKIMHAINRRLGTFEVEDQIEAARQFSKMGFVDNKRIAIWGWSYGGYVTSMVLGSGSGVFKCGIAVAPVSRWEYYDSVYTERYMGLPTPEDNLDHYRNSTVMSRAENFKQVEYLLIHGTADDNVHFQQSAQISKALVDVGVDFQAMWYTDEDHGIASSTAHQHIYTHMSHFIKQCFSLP

## CC[C@H](C)[C@H](NC(=O)[C@H](CO)NC(=O)[C@H](Cc1ccc(O)cc1)NC(=O)[C@H](CC(=O)O)NC(=O)[C@H](CO)NC(=O)[C@@H](NC(=O)[C@H](Cc1ccccc1)NC(=O)[C@@H](NC(=O)CNC(=O)[C@H](CCC(=O)O)NC(=O)[C@H](C)NC(=O)[C@@H](N)Cc1ccc(O)cc1)[C@@H](C)O)[C@@H](C)CC)C(=O)N[C@@H](C)C(=O)N[C@@H](CCSC)C(=O)N[C@@H](CC(=O)O)C(=O)N[C@@H](CCCCN)C(=O)N[C@H](C(=O)N[C@@H](Cc1c[nH]cn1)C(=O)N[C@@H](CCC(N)=O)C(=O)N[C@@H](CCC(N)=O)C(=O)N[C@@H](CC(=O)O)C(=O)N[C@@H](Cc1ccccc1)C(=O)N[C@H](C(=O)N[C@@H](CC(N)=O)C(=O)N[C@@H](Cc1c[nH]c2ccccc12)C(=O)N[C@@H](CC(C)C)C(=O)N[C@@H](CC(C)C)C(=O)N[C@@H](C)C(=O)N[C@@H](CCC(N)=O)C(=O)N[C@@H](CCCCN)C(=O)NCCOCCOCC(=O)NCCOCCOCC(=O)NCCCC[C@H](N)C(=O)N1CCC[C@H]1C#N)C(C)C)[C@@H](C)CC [GIP(1-30)-Ado-Ado-Lys-N-ε-(2-(S)-cyano pyrrolidyl)]
[1]
  inhibition at 0.01 µM: 97%
NIH/Swiss mice
  OGTT % maximal decrease: −17%

## CC[C@H](C)[C@H](NC(=O)[C@H](CO)NC(=O)[C@H](Cc1ccc(O)cc1)NC(=O)[C@H](CC(=O)O)NC(=O)[C@H](CO)NC(=O)[C@@H](NC(=O)[C@H](Cc1ccccc1)NC(=O)[C@@H](NC(=O)CNC(=O)[C@H](CCC(=O)O)NC(=O)[C@H](C)NC(=O)[C@@H](N)Cc1ccc(O)cc1)[C@@H](C)O)[C@@H](C)CC)C(=O)N[C@@H](C)C(=O)N[C@@H](CCSC)C(=O)N[C@@H](CC(=O)O)C(=O)N[C@@H](CCCCN)C(=O)N[C@H](C(=O)N[C@@H](Cc1c[nH]cn1)C(=O)N[C@@H](CCC(N)=O)C(=O)N[C@@H](CCC(N)=O)C(=O)N[C@@H](CC(=O)O)C(=O)N[C@@H](Cc1ccccc1)C(=O)N[C@H](C(=O)N[C@@H](CC(N)=O)C(=O)N[C@@H](Cc1c[nH]c2ccccc12)C(=O)N[C@@H](CC(C)C)C(=O)N[C@@H](CC(C)C)C(=O)N[C@@H](C)C(=O)N[C@@H](CCC(N)=O)C(=O)N[C@@H](CCCCN)C(=O)NCCOCCOCC(=O)NCCCC[C@H](N)C(=O)N1CCC[C@H]1C#N)C(C)C)[C@@H](C)CC [GIP(1-30)-Ado-Lys-N-ε-(2-(S)-cyano pyrrolidyl)]
Recombinant DPP-IV
  IC50: 98 ± 5 nM
[1]
  inhibition at 0.01 µM: 99%

## CC[C@H](C)[C@H](NC(=O)[C@H](CO)NC(=O)[C@H](Cc1ccc(O)cc1)NC(=O)[C@H](CC(=O)O)NC(=O)[C@H](CO)NC(=O)[C@@H](NC(=O)[C@H](Cc1ccccc1)NC(=O)[C@@H](NC(=O)CNC(=O)[C@H](CCC(=O)O)NC(=O)[C@H](C)NC(=O)[C@@H](N)Cc1ccc(O)cc1)[C@@H](C)O)[C@@H](C)CC)C(=O)N[C@@H](C)C(=O)N[C@@H](CCSC)C(=O)N[C@@H](CC(=O)O)C(=O)N[C@@H](CCCCN)C(=O)N[C@H](C(=O)N[C@@H](Cc1c[nH]cn1)C(=O)N[C@@H](CCC(N)=O)C(=O)N[C@@H](CCC(N)=O)C(=O)N[C@@H](CC(=O)O)C(=O)N[C@@H](Cc1ccccc1)C(=O)N[C@H](C(=O)N[C@@H](CC(N)=O)C(=O)N[C@@H](Cc1c[nH]c2ccccc12)C(=O)N[C@@H](CC(C)C)C(=O)N[C@@H](CC(C)C)C(=O)N[C@@H](C)C(=O)N[C@@H](CCC(N)=O)C(=O)N[C@@H](CCCCN)C(=O)N1CCC[C@H]1C(=O)N[C@@H](CO)C(=O)N[C@@H](CO)C(=O)NCC(=O)N[C@@H](C)C(=O)N1CCC[C@H]1C(=O)N1CCC[C@H]1C(=O)N1CCC[C@H]1C(=O)N[C@@H](CO)C(=O)NCCOCCOCC(=O)NCCOCCOCC(=O)NCCCC[C@H](N)C(=O)N1CCC[C@H]1C#N)C(C)C)[C@@H](C)CC [GIP(1-30)-exendin-4(31-39)-Ado-Ado-Lys-N-ε-(2-(S)-cyano pyrrolidyl)]
NIH/Swiss mice
  OGTT % maximal decrease: −22%

## CC[C@H](C)[C@H](NC(=O)[C@H](CO)NC(=O)[C@H](Cc1ccc(O)cc1)NC(=O)[C@H](CC(=O)O)NC(=O)[C@H](CO)NC(=O)[C@@H](NC(=O)[C@H](Cc1ccccc1)NC(=O)[C@@H](NC(=O)CNC(=O)[C@H](CCC(=O)O)NC(=O)[C@H](C)NC(=O)[C@@H](N)Cc1ccc(O)cc1)[C@@H](C)O)[C@@H](C)CC)C(=O)N[C@@H](C)C(=O)N[C@@H](CCSC)C(=O)N[C@@H](CC(=O)O)C(=O)N[C@@H](CCCCN)C(=O)N[C@H](C(=O)N[C@@H](Cc1c[nH]cn1)C(=O)N[C@@H](CCC(N)=O)C(=O)N[C@@H](CCC(N)=O)C(=O)N[C@@H](CC(=O)O)C(=O)N[C@@H](Cc1ccccc1)C(=O)N[C@H](C(=O)N[C@@H](CC(N)=O)C(=O)N[C@@H](Cc1c[nH]c2ccccc12)C(=O)N[C@@H](CC(C)C)C(=O)N[C@@H](CC(C)C)C(=O)N[C@@H](C)C(=O)N[C@@H](CCC(N)=O)C(=O)N[C@@H](CCCCNC(=O)COCCOCCNC(=O)CC[C@H](N)C(=O)N1CCC[C@H]1C#N)C(N)=O)C(C)C)[C@@H](C)CC [Lys^30N-ε-(Ado-(γ-L-Glu-2-(S)-cyanopyrrolidyl)) GIP(1-30)]
Recombinant DPP-IV
  IC50: 49 ± 6 nM
[1]
  inhibition at 0.01 µM: 33%

## CC[C@H](C)[C@H](NC(=O)[C@H](CO)NC(=O)[C@H](Cc1ccc(O)cc1)NC(=O)[C@H](CC(=O)O)NC(=O)[C@H](CO)NC(=O)[C@@H](NC(=O)[C@H](Cc1ccccc1)NC(=O)[C@@H](NC(=O)CNC(=O)[C@H](CCC(=O)O)NC(=O)[C@H](C)NC(=O)[C@H](Cc1ccc(O)cc1)NC(=O)COCCOCCNC(=O)COCCOCCNC(=O)CC[C@H](N)C(=O)N1CCC[C@H]1C#N)[C@@H](C)O)[C@@H](C)CC)C(=O)N[C@@H](C)C(=O)N[C@@H](CCSC)C(=O)N[C@@H](CC(=O)O)C(=O)N[C@@H](CCCCN)C(=O)N[C@H](C(=O)N[C@@H](Cc1c[nH]cn1)C(=O)N[C@@H](CCC(N)=O)C(=O)N[C@@H](CCC(N)=O)C(=O)N[C@@H](CC(=O)O)C(=O)N[C@@H](Cc1ccccc1)C(=O)N[C@H](C(=O)N[C@@H](CC(N)=O)C(=O)N[C@@H](Cc1c[nH]c2ccccc12)C(=O)N[C@@H](CC(C)C)C(=O)N[C@@H](CC(C)C)C(=O)N[C@@H](C)C(=O)N[C@@H](CCC(N)=O)C(=O)N[C@@H](CCCCN)C(=O)N1CCC[C@H]1C(=O)N[C@@H](CO)C(=O)N[C@@H](CO)C(=O)NCC(=O)N[C@@H](C)C(=O)N1CCC[C@H]1C(=O)N1CCC[C@H]1C(=O)N1CCC[C@H]1C(=O)N[C@@H](CO)C(=O)O)C(C)C)[C@@H](C)CC [N-(γ-L-Glu-2-(S)-cyanopyrrolidyl)-Ado-Ado) GIP(1-30)-exendin-4(31-39)]
Recombinant DPP-IV
  IC50: 110 ± 2 nM

## CC[C@H](C)[C@H](NC(=O)[C@H](CO)NC(=O)[C@H](Cc1ccc(O)cc1)NC(=O)[C@H](CC(=O)O)NC(=O)[C@H](CO)NC(=O)[C@@H](NC(=O)[C@H](Cc1ccccc1)NC(=O)[C@@H](NC(=O)CNC(=O)[C@H](CCC(=O)O)NC(=O)[C@@H](C)NC(=O)[C@@H](N)Cc1ccc(O)cc1)[C@@H](C)O)[C@@H](C)CC)C(=O)N[C@@H](C)C(=O)N[C@@H](CCSC)C(=O)N[C@@H](CC(=O)O)C(=O)N[C@@H](CCCCN)C(=O)N[C@H](C(=O)N[C@@H](Cc1c[nH]cn1)C(=O)N[C@@H](CCC(N)=O)C(=O)N[C@@H](CCC(N)=O)C(=O)N[C@@H](CC(=O)O)C(=O)N[C@@H](Cc1ccccc1)C(=O)N[C@H](C(=O)N[C@@H](CC(N)=O)C(=O)N[C@@H](Cc1c[nH]c2ccccc12)C(=O)N[C@@H](CC(C)C)C(=O)N[C@@H](CC(C)C)C(=O)N[C@@H](C)C(=O)N[C@@H](CCC(N)=O)C(=O)N[C@@H](CCCCN)C(=O)N1CCC[C@H]1C(=O)N[C@@H](CO)C(=O)N[C@@H](CO)C(=O)NCC(=O)N[C@@H](C)C(=O)N1CCC[C@H]1C(=O)N1CCC[C@H]1C(=O)N1CCC[C@H]1C(=O)N[C@@H](CO)C(=O)NCCOCCOCC(=O)NCCCC[C@H](N)C(=O)N1CCC[C@H]1C#N)C(C)C)[C@@H](C)CC [[D-Ala]GIP(1-30)-exendin-4(31-39)-Ado-Lys-N-ε-(2-(S)-cyano pyrrolidyl)]
NIH/Swiss mice
  OGTT % maximal decrease: −20%

## H-YAEGTFISDYSIALDKIHQQDFVNWLLAQKPSSGAPPPS[AEEA][εLys]-{Pyrrolidine(2S-CN)} [[Leu^14]GIP(1-30)-exendin-4(31-39)-Ado-Lys-N-ε-(2-(S)-cyano pyrrolidyl)]
Recombinant DPP-IV
  IC50: 82 ± 2 nM

## Lys^16 (N-ε-(Aun-Aun-(γ-L-Glu-2-(S)-cyano pyrrolidyl))) GIP(1-30)-exendin(31-39)
NIH/Swiss mice
  OGTT % maximal decrease: −3%

## [D-Ala^2, Leu^14]GIP-(1-30)-β-Ala-β-Ala-Lys(α-NH-Pyroglutamoyl)-Trp-Ala-Pro-COOH (peptide 1 Y[dA]EGTFISDYSIALDKIHQQDFVNWLLAQK[βAla][βAla]; peptide 2 [pGlu]KWAP-OH; not fully specified (some residues); printed as [D-Ala^2, Leu^14]GIP-(1-30)-β-Ala-β-Ala-Lys(α-NH-Pyroglutamoyl)-Trp-Ala-Pro-COOH; numbers in words are those of the source; also: linker at chain B 1 to a chain's C-terminus via βAla-βAla)
[1]
  GIP RBA % inhibition at 10 nM: 66%
NIH/Swiss mice
  OGTT % maximal decrease: −12^ %
